This experiment concerns B6C3F1 mice, ip Sarcoma M5076, median survival T/C. As to the kind of experiment: NCI In Vivo Anticancer Drug Screen. Data for tumor model Sarcoma M5076 (intraperitoneal) in B6C3F1 mice. The note with it: endpoint: median survival time, higher = longer survival. In short, it runs like this:
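Tumour cells were transplanted into mice, compound or vehicle was given, survival of both groups was followed, and the treated figure was expressed over the control figure.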

Where [1] appears, read: dose: 25.0 mg/kg/injection, schedule: Q04DX004 (ip), vehicle: saline with Tween-80.
The mark [2] stands for this setting: dose: 100.0 mg/kg/injection, schedule: Q04DX004 (ip), vehicle: saline with Tween-80.
The mark [3] stands for this setting: dose: 200.0 mg/kg/injection, schedule: Q04DX004 (ip), vehicle: saline with Tween-80.
The mark [4] stands for this setting: dose: 50.0 mg/kg/injection, schedule: Q04DX004 (ip), vehicle: saline.
[5] abbreviates: dose: 100.0 mg/kg/injection, schedule: Q04DX004 (ip), vehicle: saline.
The mark [6] stands for this setting: dose: 200.0 mg/kg/injection, schedule: Q04DX004 (ip), vehicle: saline.
Where [7] appears, read: dose: 25.0 mg/kg/injection, schedule: Q04DX004 (ip), vehicle: saline.
[8] abbreviates: dose: 400.0 mg/kg/injection, schedule: Q04DX004 (ip), vehicle: saline.
The mark [9] stands for this setting: dose: 50.0 mg/kg/injection, schedule: Q04DX004 (ip), vehicle: saline with Tween-80.

Where “and” joins values, the source holds several entries; their conditions need not be identical. Identical values can stand only once. Toxic doses and inconclusive results are not listed.

`Cn1cc(NC(=O)c2cc(NC(=O)c3cc(NC=O)cn3C)cn2C)cc1C(=O)NCCC(=N)N`: the T/C was 108 % of control (dose: 12.5 mg/kg/injection, schedule: Q04DX004 (ip), vehicle: water); 102 % of control (dose: 25.0 mg/kg/injection, schedule: Q04DX004 (ip), vehicle: water); 105 % of control (dose: 50.0 mg/kg/injection, schedule: Q04DX004 (ip), vehicle: water); 99 % of control (dose: 100.0 mg/kg/injection, schedule: Q04DX004 (ip), vehicle: water).

With `CN(C)N=Nc1ccc(C(N)=O)cc1`, the T/C runs as follows: under setting [1], 120 % of control and 121 % of control; under setting [2], 151 % of control; under setting [3], 163 % of control; (dose: 400.0 mg/kg/injection, schedule: Q04DX004 (ip), vehicle: saline with Tween-80) 109 % of control.

As to `N#CC1C(=O)NC(=S)NC1c1ccc2c(c1)CCC2` (stereo not drawn), the T/C is, setting by setting: under setting [4], 103 % of control; under setting [5], 97 % of control; under setting [6], 102 % of control.

With `COC1N(C2CC(O)C(CO)O2)C(=O)NC(=O)C1(F)Br` (stereo not drawn), the T/C is, setting by setting: under setting [7], 108 % of control; under setting [4], 113 % of control; under setting [5], 112 % of control; under setting [6], 114 % of control; under setting [8], 113 % of control.

`Cc1cccc(OCC(O)CN2CC2)c1` (stereo not drawn): the T/C is, setting by setting: under setting [1], 101 % of control and 104 % of control; (dose: 36.0 mg/kg/injection, schedule: Q04DX004 (ip), vehicle: saline with Tween-80) 97 % of control; under setting [9], 105 % of control and 114 % of control; (dose: 60.0 mg/kg/injection, schedule: Q04DX004 (ip), vehicle: saline with Tween-80) 102 % of control; (dose: 166.66 mg/kg/injection, schedule: Q04DX004 (ip), vehicle: saline with Tween-80) 119 % of control; under setting [3], 108 % of control. Further, the T/C (dose: 277.77 mg/kg/injection, schedule: Q04DX004 (ip), vehicle: saline with Tween-80) is 116 % of control.

`CC[n+]1c([S-])nn(C)c1-c1cnccn1`: the T/C runs as follows: (dose: 37.5 mg/kg/injection, schedule: Q04DX004 (ip), vehicle: saline with Tween-80) 103 % of control; (dose: 75.0 mg/kg/injection, schedule: Q04DX004 (ip), vehicle: saline with Tween-80) 107 % of control; (dose: 150.0 mg/kg/injection, schedule: Q04DX004 (ip), vehicle: saline with Tween-80) 96 % of control; (dose: 300.0 mg/kg/injection, schedule: Q04DX004 (ip), vehicle: saline with Tween-80) 112 % of control; (dose: 600.0 mg/kg/injection, schedule: Q04DX004 (ip), vehicle: saline with Tween-80) 95 % of control.

Consider `C=C(OC)C(Nc1cc(OC)c(OC)cc1C(=O)OC1CC(O[C@@H]2C(=O)C(NC(=O)OC)=C3/C(=C\CSSSC)[C@]2(O)C#C/C=C\C#C[C@@H]3OC2OC(C)C(NOC3CC(O)C(SC)C(C)O3)C(O)C2OC2CC(OC)C(NCCC)CO2)OC(C)C1O)OC` (stereo partly drawn), for which the T/C (dose: 0.32 micrograms/kg/injection, schedule: Q04DX004 (ip), vehicle: saline + alcohol) was 152 % of control and the T/C (dose: 1.28 micrograms/kg/injection, schedule: Q04DX004 (ip), vehicle: saline + alcohol) is 156 % of control.

Regarding `C=C1C(O)C2OC3(CCC(/C=C/C(C)C4CC5(C)SC5C5(OC(CC(C)(O)C(=O)O)CCC5O)O4)O3)CCC2OC1C(O)CC(C)C1OC2(CCCCO2)CCC1C` (stereo not drawn), the T/C is, setting by setting: (dose: 2.5 micrograms/kg/injection, schedule: Q04DX004 (ip), vehicle: saline + alcohol) 101 % of control; (dose: 5.0 micrograms/kg/injection, schedule: Q04DX004 (ip), vehicle: saline + alcohol) 96 % of control; (dose: 10.0 micrograms/kg/injection, schedule: Q04DX004 (ip), vehicle: saline + alcohol) 99 % of control; (dose: 20.0 micrograms/kg/injection, schedule: Q04DX004 (ip), vehicle: saline + alcohol) 95 % of control; (dose: 40.0 micrograms/kg/injection, schedule: Q04DX004 (ip), vehicle: saline + alcohol) 95 % of control.

As for `O=C1N[C@H]2[C@H](O)[C@H](O)[C@@H](O)[C@H](O)[C@@H]2c2cc3c(c(O)c21)OCO3`, the T/C is, setting by setting: (dose: 1.5 mg/kg/injection, schedule: Q04DX004 (ip), vehicle: saline + alcohol) 115 % of control and 121 % of control; (dose: 3.0 mg/kg/injection, schedule: Q01DX009 (ip), vehicle: saline + alcohol) 162 % of control and 163 % of control; (dose: 6.0 mg/kg/injection, schedule: Q01DX009 (ip), vehicle: saline + alcohol) 177 % of control; (dose: 6.25 mg/kg/injection, schedule: Q01DX009 (ip), vehicle: saline + alcohol) 152 % of control.

As for `NC(=O)c1ccc[n+](Cc2c(Cl)cccc2Cl)c1`, the T/C reads like this: (dose: 12.5 mg/kg/injection, schedule: Q04DX004 (ip), vehicle: saline) 100 % of control; under setting [7], 99 % of control; under setting [4], 100 % of control; under setting [5], 96 % of control.

Take `COc1cc(C(C)(C)C)cc(OC)c1C(O)(c1c(OC)cc(C(C)(C)C)cc1OC)c1c(OC)cc(C(C)(C)C)cc1OC`: the T/C was 123 % of control under setting [1], 116 % of control under setting [9], 108 % of control under setting [2] and 123 % of control under setting [3].

For `O=C1C=CC2OC(c3ccccc3)C(O)C2O1` (stereo not drawn), the T/C runs as follows: (dose: 6.25 mg/kg/injection, schedule: Q04DX004 (ip), vehicle: DMSO) 105 % of control; (dose: 12.5 mg/kg/injection, schedule: Q04DX004 (ip), vehicle: DMSO) 107 % of control; (dose: 25.0 mg/kg/injection, schedule: Q04DX004 (ip), vehicle: DMSO) 112 % of control; (dose: 50.0 mg/kg/injection, schedule: Q04DX004 (ip), vehicle: DMSO) 107 % of control.

In the case of `COc1ccc2[nH]c3ccc4cc[n+](CCN5CCC(C6CCN(CC[n+]7ccc8ccc9[nH]c%10ccc(OC)cc%10c9c8c7)CC6)CC5)cc4c3c2c1`, the T/C by setting is: (dose: 16.0 mg/kg/injection, schedule: Q04DX004 (ip), vehicle: water) 157 % of control; (dose: 32.0 mg/kg/injection, schedule: Q04DX004 (ip), vehicle: water) 194 % of control.

In the case of `c1cn[nH]c1`, the T/C is 93 % of control and 100 % of control under setting [7]; 97 % of control and 106 % of control and 107 % of control under setting [4]; 103 % of control and 104 % of control and 107 % of control under setting [5]; 105 % of control and 107 % of control and 110 % of control under setting [6]; 116 % of control under setting [8].

For the compound `Cc1ccc(N=NN(C)C)cc1NC(=O)NCC(=O)OC(C)(C)C`, the T/C runs as follows: (dose: 16.25 mg/kg/injection, schedule: Q04DX004 (ip), vehicle: saline with Tween-80) 103 % of control; (dose: 32.5 mg/kg/injection, schedule: Q04DX004 (ip), vehicle: saline with Tween-80) 98 % of control; (dose: 65.0 mg/kg/injection, schedule: Q04DX004 (ip), vehicle: saline with Tween-80) 111 % of control; (dose: 130.0 mg/kg/injection, schedule: Q04DX004 (ip), vehicle: saline with Tween-80) 108 % of control; (dose: 260.0 mg/kg/injection, schedule: Q04DX004 (ip), vehicle: saline with Tween-80) 118 % of control.

Consider `CN(C)CCNC1=CC(=O)c2ccccc2C1=O`, for which the T/C is 101 % of control (dose: 50.0 mg/kg/injection, schedule: Q04DX004 (ip), vehicle: distilled water + Tween-80) and 101 % of control (dose: 100.0 mg/kg/injection, schedule: Q04DX004 (ip), vehicle: distilled water + Tween-80).

Regarding `CC1[C@@H]2CC=C3[C@H]4CCC5Cc6nc7c(nc6C[C@@]5(C)C4CC(=O)[C@]32CO[C@]12OC(C)(C)CC2O)CC1CC[C@@H]2C3=C[C@H]4O[C@@]5(O[C@@](C)(CO)C[C@@H]5O)C(C)[C@@]4(O)[C@]3(C)[C@@H](O)CC2[C@]1(C)C7` (stereo partly drawn), the T/C runs as follows: (dose: 12.5 micrograms/kg/injection, schedule: Q04DX004 (ip), vehicle: saline + alcohol) 98 % of control; (dose: 25.0 micrograms/kg/injection, schedule: Q04DX004 (ip), vehicle: saline + alcohol) 94 % of control; (dose: 50.0 micrograms/kg/injection, schedule: Q04DX004 (ip), vehicle: saline + alcohol) 102 % of control; (dose: 100.0 micrograms/kg/injection, schedule: Q04DX004 (ip), vehicle: saline + alcohol) 103 % of control and 107 % of control; (dose: 200.0 micrograms/kg/injection, schedule: Q04DX004 (ip), vehicle: saline + alcohol) 114 % of control.

Consider `C=C(C)[C@H]1Cc2c(ccc3c2O[C@@H]2COc4cc(OC)c(OC)cc4[C@@H]2C3=O)O1`, for which the T/C reads like this: (dose: 6.25 mg/kg/injection, schedule: Q04DX004 (ip), vehicle: saline with Tween-80) 98 % of control; (dose: 12.5 mg/kg/injection, schedule: Q04DX004 (ip), vehicle: saline with Tween-80) 95 % of control; under setting [1], 97 % of control.

These data come from PubChem BioAssay AID292 (DTP/NCI, 2004).
